Assay results published in publication PMC4148174 (Biochemical Journal, 2014).
Read-outs that look alike come from different tables or passages of the source.

How the values were obtained:
[1] = system: T1, isolated F1 domain of ATPase; test: ATP hydrolysis by the isolated F1 domain; assay type: biochemical, bovine; conditions: at the SMP IC50 values
T1 construct: from tissue; host or cells: bovine mitochondria
Experimental: Complex I was prepared from Bos taurus (bovine) heart mitochondria, Pichia pastoris and Escherichia coli, as described previously. SMPs (submitochondrial particles) and mitochondrial membranes were prepared from bovine heart mitochondria. […] Mitochondria were isolated from rat liver by the method of Chappell and Hansford. F1FO-ATP synthase and the F1 domain were isolated from bovine mitochondria as described previously using a HiLoad Superdex 200-PG column and omitting azide and 2-mercaptoethanol.

ATP synthase = system: T2, ATP synthase; test: Succinate-driven ATP synthesis by SMPs; assay type: biochemical, bovine; conditions: 15 mM buformin, 100 mM metformin; others up to concentrations above IC50 for ATP hydrolysis; corrected for succinate oxidation
T2 construct: from tissue; host or cells: SMPs from bovine heart mitochondria
Source text: Data points are means±S.E.M., n=3, as a percentage of ATP production in the absence of biguanide. […] (●).

[2] = system: Hep G2 hepatocarcinoma cells; test: Rotenone-sensitive OCR and ECAR of Hep G2 cells (Seahorse); assay type: cell-based, human; conditions: for effect on rotenone-sensitive OCR or ECAR: concentration equal to complex I IC50/10, 6 h of treatment; for IC50: Hep G2 cells, 6 h exposure, read-out: cellular IC50, rotenone-sensitive OCR
Experimental: OCRs (oxygen consumption rates) and ECARs (extracellular acidification rates) were measured in a Seahorse extracellular flux analyser; 200 nM rotenone was used to inhibit complex I where stated. To calculate the normalized rotenone-sensitive OCR rates, the rotenone-insensitive rates (determined at the end of the experiment) were subtracted and the traces normalized to 100% before biguanide addition. ECAR data were normalized to 100% before biguanide addition. […] Isolated rat liver mitochondria were plated at 20 μg per well in the same buffer but without PMP. They were adhered to the plate by centrifugation at 2000 g for 20 min at 4°C and measurements performed and normalized (after temperature equilibration) as for permeabilized cells but at 32°C.
(§1) Biguanides are positively charged so they are expected to accumulate in the mitochondria of cells in response to the potential difference across the inner membrane (the potential difference is the ‘charge’ component of the protonmotive force). Each 60 mV of potential difference drives the concentration of the positive ion to 10-times higher inside the mitochondrion than outside. For a typical potential difference of 120–150 mV the concentration inside the mitochondrion could therefore be 100 to 300-times higher than outside. […] The OCRs were normalized to their values before biguanide addition, and monitored throughout the experiment; rotenone-insensitive rates were subtracted, and all rates after 6 h compared with a biguanide-free control.

complex III = test: Complex III inhibition (succinate:cytochrome c oxidoreduction); conditions: read-out: IC50 on complex III
[3] = biological target: T3, complex I (NADH:ubiquinone oxidoreductase); test: NADH:decylubiquinone oxidoreduction by isolated complex I; assay type: biochemical, Bos taurus (bovine); conditions: for IC50: isolated bovine complex I, 32°C, pH 7.2, 200 μM NADH, 200 μM decylubiquinone, 95% confidence intervals; for inhibition of complex I catalysis at extrapolated mitochondrial concentration: 10 mM metformin, 200 μM phenformin in mitochondria
T3 construct: from tissue; host or cells: bovine heart mitochondria
Experimental: Catalysis was initiated by the addition of NADH, following a 2 min pre-incubation, and rates measured as the linear regression of the maximal rate (discarding any initial lag phases). […] Control experiments included NaCl (to maintain the ionic strength) or DMSO.
Experimental values are reported as means±S.E.M. for small sample sizes or as means±S.D. for large sample sizes with only technical error sources. […] Comparisons between samples are marked *P<0.05, **P<0.01 and ****P<0.0001 as determined using an unpaired two-tailed Students t test. Differences between measurements with P>0.05 were considered not significant.

complex I flavin = system: T4, complex I flavin; test: H2O2 production (NADH:O2 oxidoreduction) by isolated complex I; assay type: biochemical, bovine; conditions: dose-response
T4 construct: from tissue; host or cells: bovine heart mitochondria (from context)
Experimental: (§2) NADH:decylubiquinone oxidoreduction was measured using 200 μM NADH and 200 μM decylubiquinone, in 0.075% soya bean asolectin (Avanti Polar Lipids) and 0.075% CHAPS (Merck Chemicals) and quantified by the absorbance of NADH (ε340–380=4.81 mM^−1·cm^−1). Catalysis was initiated by the addition of NADH, following a 2 min pre-incubation, and rates measured as the linear regression of the maximal rate (discarding any initial lag phases). […] Initial rates for the NADH:FeCN (ferricyanide), NADH:HAR [hexaammineruthenium(III)] and NADH:paraquat reactions were measured in 100 μM NADH with 1 mM FeCN (ε420–500=1 mM^−1·cm^−1), 3.5 mM HAR or 200 μM paraquat (ε340–380=4.81 mM^−1·cm^−1). H2O2 formation was followed in 30 μM NADH as the catalase-sensitive horseradish peroxidase-dependent oxidation of 10 μM Amplex Red to resorufin (ε557–620=51.6 mM^−1·cm^−1), with 2 units/ml superoxide dismutase, or by monitoring NADH oxidation. Metformin (Cambridge Bioscience) phenformin and buformin (Santa Cruz Biotechnology) were added from aqueous stock solutions, and cycloguanil (Santa Cruz Biotechnology) and proguanil (Sigma–Aldrich) were in DMSO. Control experiments included NaCl (to maintain the ionic strength) or DMSO.

complex I [4] = test: NADH:decylubiquinone oxidoreduction by isolated complex I from yeast; assay type: biochemical, Pichia pastoris; conditions: complex I from the yeast P. pastoris; read-out: IC50, inhibition of complex I
Experimental: (§3) Complex I was prepared from Bos taurus (bovine) heart mitochondria, Pichia pastoris and Escherichia coli, as described previously. SMPs (submitochondrial particles) and mitochondrial membranes were prepared from bovine heart mitochondria. Complex IV was a by-product from the preparation of complex I; it elutes from the Q-Sepharose column at ~250 mM NaCl. Mitochondria were isolated from rat liver by the method of Chappell and Hansford. F1FO-ATP synthase and the F1 domain were isolated from bovine mitochondria as described previously using a HiLoad Superdex 200-PG column and omitting azide and 2-mercaptoethanol.
(§4) NADH:decylubiquinone oxidoreduction was measured using 200 μM NADH and 200 μM decylubiquinone, in 0.075% soya bean asolectin (Avanti Polar Lipids) and 0.075% CHAPS (Merck Chemicals) and quantified by the absorbance of NADH (ε340–380=4.81 mM^−1·cm^−1). Catalysis was initiated by the addition of NADH, following a 2 min pre-incubation, and rates measured as the linear regression of the maximal rate (discarding any initial lag phases). […] Initial rates for the NADH:FeCN (ferricyanide), NADH:HAR [hexaammineruthenium(III)] and NADH:paraquat reactions were measured in 100 μM NADH with 1 mM FeCN (ε420–500=1 mM^−1·cm^−1), 3.5 mM HAR or 200 μM paraquat (ε340–380=4.81 mM^−1·cm^−1). […]

complex I [5] = test: NADH:decylubiquinone oxidoreduction by isolated complex I from bacterium; assay type: biochemical, Escherichia coli; conditions: read-out: IC50, inhibition of complex I; complex I from the bacterium E. coli
Experimental: as §3, §4

complex I [6] = test: NADH:FeCN oxidoreduction by complex I from P. pastoris; assay type: biochemical, Pichia pastoris; conditions: 200 mM metformin
Experimental: as §2

complex I [7] = test: NADH:FeCN oxidoreduction by complex I from E. coli; assay type: biochemical, Escherichia coli; conditions: 200 mM metformin
Experimental: as §2

complex I flavin site = system: T5, complex I flavin site; test: NADH-dependence of NADH:FeCN catalysis by isolated bovine complex I; assay type: biochemical; conditions: 100 mM metformin
T5 construct: from tissue; host or cells: bovine heart mitochondria

[8] = system: isolated rat skeletal muscle mitochondria; test: H2O2 production by isolated rat skeletal muscle mitochondria (resorufin fluorescence); conditions: glutamate and pyruvate, ATP and rotenone
Source text: . However, these extramitochondrial concentrations are very high and we are unable to control the intramitochondrial concentration or conditions, so the results are not quantitatively meaningful. […]

complex I in SMPs = system: T6, complex I in SMPs; test: NADH oxidation by SMPs; assay type: biochemical, bovine; conditions: 100 mM metformin added 10 min after initiation by 200 μM NADH
T6 construct: from tissue; host or cells: SMPs from bovine heart mitochondria

143B osteosarcoma cells = test: Rotenone-sensitive OCR of 143B cells (Seahorse); assay type: cell-based, human; conditions: 6 h exposure, read-out: cellular IC50, rotenone-sensitive OCR
Experimental: Cells [143B (cell line 8303 from the A.T.C.C.) and Hep G2 (cell line 85011430 from The Health Protection Agency)] were grown on DMEM (Dulbecco's modified Eagle's medium) supplemented with 10% FBS (Thermo Fisher Scientific) and 100 units/ml penicillin and 100 μg/ml streptomycin at 37°C in 5% CO2. Per well, 3×10^4 or 1.5×10^4 cells were plated into XF24 or XF96 (Seahorse Bioscience) plates respectively, and incubated for 12 h at 37°C in 5% CO2. The medium was exchanged for assay buffer containing DMEM, 4.5 g/l glucose, 1 mM pyruvate, 32 mM NaCl, 2 mM GlutaMAX, 15 mg/l Phenol Red and 20 mM Hepes (pH 7.4) and the cells placed in a CO2-free incubator at 37°C for 60 min. OCRs (oxygen consumption rates) and ECARs (extracellular acidification rates) were measured in a Seahorse extracellular flux analyser; 200 nM rotenone was used to inhibit complex I where stated. To calculate the normalized rotenone-sensitive OCR rates, the rotenone-insensitive rates (determined at the end of the experiment) were subtracted and the traces normalized to 100% before biguanide addition. ECAR data were normalized to 100% before biguanide addition. For the permeabilized cell experiments, cells were seeded at 3.5×10^3 per well and incubated for 62 h at 37°C in 5% CO2. The medium was exchanged for assay buffer containing 3 nM plasma membrane permeabilizer ‘PMP’ (Seahorse Biosciences), 10 mM pyruvate, 10 mM malate, 220 mM mannitol, 70 mM sucrose, 10 mM KH2PO4, 5 mM MgCl, 1 mM EGTA, 0.2% fatty-acid-free BSA and 2 mM Hepes (pH 7.4) at 37°C. Cells were incubated for 15 min and a baseline was recorded for normalization, then the test compounds were added. […]
Biguanides are positively charged so they are expected to accumulate in the mitochondria of cells in response to the potential difference across the inner membrane (the potential difference is the ‘charge’ component of the protonmotive force). […] The OCRs were normalized to their values before biguanide addition, and monitored throughout the experiment; rotenone-insensitive rates were subtracted, and all rates after 6 h compared with a biguanide-free control. […]

[9] = Typical blood serum levels; assay type: in vivo; conditions: 1000-fold accumulation at combined membrane potentials of 180 mV
[10] = system: immunoprecipitated complex I; design: method as in PMID 18817800; conditions: previous data; cited from earlier work
[11] = design: method as in PMID 12889529; conditions: cited from earlier work
143B and Hep G2 cells = test: Accumulation into mitochondria of cultured cells inferred from complex I inhibition; assay type: cell-based, human; conditions: 6 h
Source text: as §1, with “control. […]. […] […].” for “control.”

F1FO-ATPase = biological target: T7, F1FO-ATPase; test: ATP hydrolysis by F1FO-ATPase in SMPs (coupled assay); assay type: biochemical; conditions: bovine SMPs
T7 construct: from tissue; host or cells: SMPs from bovine heart mitochondria

[12] = biological target: T8, isolated ATPase (F1FO-ATP synthase); test: ATP hydrolysis by isolated intact ATPase; assay type: biochemical, bovine; conditions: isolated intact enzyme
T8 construct: from tissue; host or cells: bovine mitochondria
Experimental: as §3

Structure (SMILES) | inhibition of ATP hydrolysis by the isolated F1 domain [1] | effect on succinate-driven ATP synthesis (ATP synthase) | effect on rotenone-sensitive OCR or ECAR [2] | IC50 [3] | H2O2 production rate maximum (complex I flavin) | inhibition of complex I catalysis at extrapolated mitochondrial concentration [3] | IC50 (143B osteosarcoma cells; Homo sapiens, 143B, 6 h) | mitochondrial concentration extrapolated from serum [9] | serum concentration [11] | further results
CCCCNC(=N)NC(=N)N [buformin] | 74±3% | No inhibition | – | – | – | – | – | – | – | –
CC1(C)N=C(N)N=C(N)N1c1ccc(Cl)cc1 [cycloguanil] | no significant inhibition | neither cycloguanil or proguanil affect ATP synthesis | neither proguanil nor cycloguanil exhibited any substantial effect | – | – | – | – | – | – | IC50 (complex III): 2480 ± 210 µM
N=C(N)N [guanidinium] | – | – | – | 25800 ± 3900 µM | 386±34% | – | – | – | – | –
CN(C)C(=N)N=C(N)N [metformin] | – | No inhibition | – | 19400 ± 1400 µM | 338±41% | ~ 25% | 237 ± 13 µM | 10 mM | ~ 10 μM | mode of inhibition of complex I ([3]; Michaelis-Menten analysis towards decylubiquinone): reversible non-competitive inhibitor; IC50 (complex I [4]): 22600 ± 4300 µM; IC50 (complex I [5]): 60700 ± 8500 µM; NADH:FeCN reaction rate (stimulation) (complex I [6]): 166±1%; NADH:FeCN reaction rate (stimulation) (complex I [7]): 144±2%; increase of the dissociation constant for NADH to the reduced flavin (complex I flavin site): ~ 20 times; KNADHRed (dissociation constant for NADH binding to the reduced flavin) (complex I flavin site; control 11 μM, data fit): 181 µM; stimulation of H2O2 production rate ([8]; 50 mM metformin): 270±34%; stimulation of H2O2 production rate ([8]; 100 mM metformin): 360±35%; time for inhibition to attain the same level when added during catalysis (complex I in SMPs): more than 30 min; IC50 (143B osteosarcoma cells): 240 ± 10 µM; IC50 [2]: 330 ± 20 µM; IC50 ([2]; Homo sapiens, HepG2, 6 h): 325 ± 25 µM; IC50 [10]: 66000 µM
[H]/N=C(/N)N/C(=N/[H])NCCc1ccccc1 [phenformin] | 32±7.5% | inhibition of synthesis is observed at higher concentrations | – | – | – | ~ 25% | 3.81 ± 1.12 µM | 0.2 mM | ~ 200 nM | IC50 ([2]; Homo sapiens, HepG2): 3.8 ± 0.38 µM; time for uptake to reach completion ([2]; concentration equal to complex I IC50/10 (0.04 mM phenformin)): approximately 6 h; accumulation (isolated complex I IC50 versus cellular IC50) (143B and Hep G2 cells): 120 fold
[H]/N=C(\N/C(=N/[H])Nc1ccc(Cl)cc1)NC(C)C [proguanil] | no significant inhibition | neither cycloguanil or proguanil affect ATP synthesis | neither proguanil nor cycloguanil exhibited any substantial effect | – | – | – | – | – | – | IC50 (F1FO-ATPase): 6.8 ± 0.7 µM; IC50 [12]: 0.67 ± 0.1 µM
